Here are results for 32 compounds from patent US8686150B2 (Sanofi, priority 2011, dated 2014).

The test deals with T1, human full-length recombinant PKC βII (Homo sapiens, UniProt P05771).
T1 construct: Active human full-length recombinant PKC βII; purchased Invitrogen GmbH, Darmstadt, Germany
Kind of test: Determination of PKC βII inhibition (Caliper mobility-shift kinase assay, Fluorescein-RFARKGSLRQKNV peptide substrate). It is filed as biochemical. To be noted: example compounds at a final concentration of 1.14 μM (±0.15 μM). The gist of the method: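 Full-length PKC βII (30 ng/ml in pre-dilution) with PS/DAG/Ca2+ activators, pH 7.4; fluorescein peptide and ATP at 3 μM and 120 μM before mixing. Reaction ran 60 min at 32 °C, was EDTA-stopped, and was read by mobility shift. % inhibition came from product/(substrate+product) peak heights, tested at 1.14 μM final.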

T1 sequence (P05771 1-673 isoform P05771-2): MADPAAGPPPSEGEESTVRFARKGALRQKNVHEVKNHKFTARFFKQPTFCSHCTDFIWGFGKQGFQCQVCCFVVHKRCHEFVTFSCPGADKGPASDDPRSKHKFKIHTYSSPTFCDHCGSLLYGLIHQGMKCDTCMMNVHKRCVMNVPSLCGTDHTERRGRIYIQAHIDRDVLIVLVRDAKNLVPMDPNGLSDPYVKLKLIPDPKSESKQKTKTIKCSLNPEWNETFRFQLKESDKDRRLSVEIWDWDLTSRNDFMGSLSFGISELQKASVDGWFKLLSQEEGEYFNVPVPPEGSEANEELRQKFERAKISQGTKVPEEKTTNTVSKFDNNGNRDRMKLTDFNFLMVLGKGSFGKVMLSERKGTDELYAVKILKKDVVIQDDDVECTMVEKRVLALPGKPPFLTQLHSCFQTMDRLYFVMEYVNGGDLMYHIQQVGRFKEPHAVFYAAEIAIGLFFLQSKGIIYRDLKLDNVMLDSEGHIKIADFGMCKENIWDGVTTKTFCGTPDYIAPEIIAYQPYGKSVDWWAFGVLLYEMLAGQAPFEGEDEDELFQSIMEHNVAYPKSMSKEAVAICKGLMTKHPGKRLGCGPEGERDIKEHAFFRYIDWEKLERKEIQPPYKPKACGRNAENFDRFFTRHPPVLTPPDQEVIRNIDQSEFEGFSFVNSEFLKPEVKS

Regarding `Cc1n[nH]c2nc(-c3ccc(O)cc3)cc(C(=O)N3CC[C@H](N(C)C)C3)c12` [Example 239, ((S)-3-Dimethylamino-pyrrolidin-1-yl)-[6-(4-hydroxy-phenyl)-3-methyl-1H-pyrazolo[3,4-b]pyridin-4-yl]-methanone], the inhibition at 1.14 µM amounted to 78%.

For `CNC1CCN(C(=O)c2cc(-c3ccc(O)cc3)nc3[nH]nc(C)c23)C1` (centres unmarked) [Example 240, [6-(4-Hydroxy-phenyl)-3-methyl-1H-pyrazolo[3,4-b]pyridin-4-yl]-(3-methylamino-pyrrolidin-1-yl)-methanone], the inhibition at 1.14 µM was determined as 94%.

On to `Cc1n[nH]c2nc(-c3ccc(O)cc3)cc(C(=O)N(C)C3CCNCC3)c12` [Example 241, 6-(4-Hydroxy-phenyl)-3-methyl-1H-pyrazolo[3,4-b]pyridine-4-carboxylic acid methyl-piperidin-4-yl-amide], for which the inhibition at 1.14 µM was 88%.

Regarding `Cc1n[nH]c2nc(-c3ccc(O)cc3)cc(C(=O)NC3CCCNC3)c12` (centres unmarked) [Example 242, 6-(4-Hydroxy-phenyl)-3-methyl-1H-pyrazolo[3,4-b]pyridine-4-carboxylic acid piperidin-3-ylamide], the inhibition at 1.14 µM turned out to be 87%.

As to `Cc1n[nH]c2nc(-c3ccc(O)cc3)cc(C(=O)NCC3CCCNC3)c12` (centres unmarked) [Example 243, 6-(4-Hydroxy-phenyl)-3-methyl-1H-pyrazolo[3,4-b]pyridine-4-carboxylic acid (piperidin-3-ylmethyl)-amide], the inhibition at 1.14 µM came out at 78%.

Take `CNCCCNC(=O)c1cc(-c2ccc(O)cc2)nc2[nH]nc(C)c12` [Example 244, 6-(4-Hydroxy-phenyl)-3-methyl-1H-pyrazolo[3,4-b]pyridine-4-carboxylic acid (3-methylamino-propyl)-amide]: the inhibition at 1.14 µM came out at 76%.

`Cc1n[nH]c2nc(-c3ccc(O)cc3)cc(C(=O)NCC3CCCCN3)c12` (centres unmarked) [Example 245, 6-(4-Hydroxy-phenyl)-3-methyl-1H-pyrazolo[3,4-b]pyridine-4-carboxylic acid (piperidin-2-ylmethyl)-amide]: the inhibition at 1.14 µM came to 83%.

In the case of `Cc1n[nH]c2nc(-c3ccc(O)cc3)cc(C(=O)N3CC[C@H](N)C3)c12` [Example 246, ((S)-3-Amino-pyrrolidin-1-yl)-[6-(4-hydroxy-phenyl)-3-methyl-1H-pyrazolo[3,4-b]pyridin-4-yl]-methanone], the inhibition at 1.14 µM is 88%.

For `Cc1n[nH]c2nc(-c3ccc(O)cc3)cc(C(=O)N3CC(N)C3)c12` [Example 247, (3-Amino-azetidin-1-yl)-[6-(4-hydroxy-phenyl)-3-methyl-1H-pyrazolo[3,4-b]pyridin-4-yl]-methanone], the inhibition at 1.14 µM is 69%.

As to `Cc1n[nH]c2nc(-c3ccc(O)cc3)cc(C(=O)NC3CNC3)c12` [Example 248, 6-(4-Hydroxy-phenyl)-3-methyl-1H-pyrazolo[3,4-b]pyridine-4-carboxylic acid azetidin-3-ylamide], the inhibition at 1.14 µM came out at 83%.

Consider `Cc1n[nH]c2nc(-c3ccc(O)cc3)cc(C(=O)N3CCC(N)CC3)c12` [Example 249, (4-Amino-piperidin-1-yl)-[6-(4-hydroxy-phenyl)-3-methyl-1H-pyrazolo[3,4-b]pyridin-4-yl]-methanone], for which the inhibition at 1.14 µM amounted to 82%.

Consider `Cc1n[nH]c2nc(-c3ccc(O)cc3)cc(C(=O)N3C[C@H]4CNC[C@H]4C3)c12` [Example 250, (3aR,6aS)-Hexahydro-pyrrolo[3,4-c]pyrrol-2-yl-[6-(4-hydroxy-phenyl)-3-methyl-1H-pyrazolo[3,4-b]pyridin-4-yl]-methanone], for which the inhibition at 1.14 µM was found to be 85%.

For the compound `Cc1n[nH]c2nc(-c3ccc(O)cc3)cc(C(=O)N[C@H]3C[C@H](N)C3)c12` [Example 252, 6-(4-Hydroxy-phenyl)-3-methyl-1H-pyrazolo[3,4-b]pyridine-4-carboxylic acid (trans-3-amino-cyclobutyl)-amide], the inhibition at 1.14 µM stood at 72%.

As to `Cc1n[nH]c2nc(-c3ccc(O)cc3)cc(C(=O)N3CCC4(CNCCO4)C3)c12` (centres unmarked) [Example 253, [6-(4-Hydroxy-phenyl)-3-methyl-1H-pyrazolo[3,4-b]pyridin-4-yl]-(6-oxa-2,9-diaza-spiro[4.5]dec-2-yl)-methanone], the inhibition at 1.14 µM is 73%.

As for `Cc1n[nH]c2nc(-c3ccc(O)cc3)cc(C(=O)NC3CCCC(N)C3)c12` (centres unmarked) [Example 254, 6-(4-Hydroxy-phenyl)-3-methyl-1H-pyrazolo[3,4-b]pyridine-4-carboxylic acid (3-amino-cyclohexyl)-amide], the inhibition at 1.14 µM was 80%.

With `Cc1n[nH]c2nc(-c3ccc(O)cc3)cc(C(=O)N3CCC4(CC3)CNC4)c12` [Example 255, (2,7-Diaza-spiro[3.5]non-7-yl)-[6-(4-hydroxy-phenyl)-3-methyl-1H-pyrazolo[3,4-b]pyridin-4-yl]-methanone], the inhibition at 1.14 µM worked out at 90%.

With `Cc1n[nH]c2nc(-c3ccc(O)cc3)cc(C(=O)N3CCC4(CCNC4)C3)c12` (centres unmarked) [Example 256, (2,7-Diaza-spiro[4.4]non-2-yl)-[6-(4-hydroxy-phenyl)-3-methyl-1H-pyrazolo[3,4-b]pyridin-4-yl]-methanone], the inhibition at 1.14 µM turned out to be 86%.

Turning to `Cc1n[nH]c2nc(-c3ccc(O)cc3)cc(C(=O)N3CCC4(CCNC4)CC3)c12` [Example 257, (2,8-Diaza-spiro[4.5]dec-8-yl)-[6-(4-hydroxy-phenyl)-3-methyl-1H-pyrazolo[3,4-b]pyridin-4-yl]-methanone], the inhibition at 1.14 µM was determined as 82%.

For `Cc1n[nH]c2nc(-c3ccc(O)cc3)cc(C(=O)N3CCOC4(CCCNC4)C3)c12` (centres unmarked) [Example 258, [6-(4-Hydroxy-phenyl)-3-methyl-1H-pyrazolo[3,4-b]pyridin-4-yl]-(1-oxa-4,8-diaza-spiro[5.5]undec-4-yl)-methanone], the inhibition at 1.14 µM stood at 78%.

Turning to `Cc1n[nH]c2nc(-c3ccc(O)cc3)cc(C(=O)N3CCC4(CC3)CNCCO4)c12` [Example 259, [6-(4-Hydroxy-phenyl)-3-methyl-1H-pyrazolo[3,4-b]pyridin-4-yl]-(1-oxa-4,9-diaza-spiro[5.5]undec-9-yl)-methanone], the inhibition at 1.14 µM is 29%.

As for `Cc1n[nH]c2nc(-c3ccc(O)cc3)cc(C(=O)N3CCC4(CCNCC4)C3)c12` [Example 260, (2,8-Diaza-spiro[4.5]dec-2-yl)-[6-(4-hydroxy-phenyl)-3-methyl-1H-pyrazolo[3,4-b]pyridin-4-yl]-methanone], the inhibition at 1.14 µM turned out to be 78%.

For `Cc1n[nH]c2nc(-c3ccc(O)cc3)cc(C(=O)N3CCOC4(CCNCC4)C3)c12` [Example 261, [6-(4-Hydroxy-phenyl)-3-methyl-1H-pyrazolo[3,4-b]pyridin-4-yl]-(1-oxa-4,9-diaza-spiro[5.5]undec-4-yl)-methanone], the inhibition at 1.14 µM was 70%.

Consider `Cc1n[nH]c2nc(-c3ccc(O)cc3)cc(C(=O)N3CCCC4(CNCCO4)C3)c12` (centres unmarked) [Example 262, [6-(4-Hydroxy-phenyl)-3-methyl-1H-pyrazolo[3,4-b]pyridin-4-yl]-(1-oxa-4,8-diaza-spiro[5.5]undec-8-yl)-methanone], for which the inhibition at 1.14 µM came to 59%.

On to `Cc1n[nH]c2nc(-c3ccc(O)cc3)cc(C(=O)N3CCCC4(CCNC4)C3)c12` (centres unmarked) [Example 263, (2,7-Diaza-spiro[4.5]dec-7-yl)-[6-(4-hydroxy-phenyl)-3-methyl-1H-pyrazolo[3,4-b]pyridin-4-yl]-methanone], for which the inhibition at 1.14 µM came out at 65%.

With `Cc1n[nH]c2nc(-c3ccc(O)cc3)cc(C(=O)N3CCC(N)C3)c12` (centres unmarked) [Example 264, (3-Amino-pyrrolidin-1-yl)-[6-(4-hydroxy-phenyl)-3-methyl-1H-pyrazolo[3,4-b]pyridin-4-yl]-methanone], the inhibition at 1.14 µM was 88%.

Regarding `CC(=O)N1CCN(C(=O)c2cc(-c3ccc(O)cc3)nc3[nH]nc(C)c23)CC1` [Example 265, 1-{4-[6-(4-Hydroxy-phenyl)-3-methyl-1H-pyrazolo[3,4-b]pyridine-4-carbonyl]-piperazin-1-yl}-ethanone], the inhibition at 1.14 µM is 87%.

Consider `Cc1n[nH]c2nc(-c3ccc(O)cc3)cc(C(=O)N3CC(=O)N4CCCCC4C3)c12` (centres unmarked) [Example 266, 2-[6-(4-Hydroxy-phenyl)-3-methyl-1H-pyrazolo[3,4-b]pyridine-4-carbonyl]-octahydro-pyrido[1,2-a]pyrazin-4-one], for which the inhibition at 1.14 µM came out at 39%.

As to `Cc1ccc(C(=O)N2CCN(C(=O)c3cc(-c4ccc(O)cc4)nc4[nH]nc(C)c34)CC2)cc1` [Example 267, [6-(4-Hydroxy-phenyl)-3-methyl-1H-pyrazolo[3,4-b]pyridin-4-yl]-[4-(4-methyl-benzoyl)-piperazin-1-yl]-methanone], the inhibition at 1.14 µM is 32%.

For the compound `CCN1CC2CC1CN2C(=O)c1cc(-c2ccc(O)cc2)nc2[nH]nc(C)c12` (centres unmarked) [Example 268, (5-Ethyl-2,5-diaza-bicyclo[2.2.1]hept-2-yl)-[6-(4-hydroxy-phenyl)-3-methyl-1H-pyrazolo[3,4-b]pyridin-4-yl]-methanone], the inhibition at 1.14 µM came to 80%.

Turning to `Cc1n[nH]c2nc(-c3ccc(O)cc3)cc(C(=O)N3CCCN(C)CC3)c12` [Example 269, [6-(4-Hydroxy-phenyl)-3-methyl-1H-pyrazolo[3,4-b]pyridin-4-yl]-(4-methyl-[1,4]diazepan-1-yl)-methanone], the inhibition at 1.14 µM amounted to 87%.

With `Cc1n[nH]c2nc(-c3ccc(O)cc3)cc(C(=O)NCC(C)(C)CN)c12` [Example 270, 6-(4-Hydroxy-phenyl)-3-methyl-1H-pyrazolo[3,4-b]pyridine-4-carboxylic acid (3-amino-2,2-dimethyl-propyl)-amide], the inhibition at 1.14 µM was 87%.

As for `Cc1n[nH]c2nc(-c3ccc(O)cc3)cc(C(=O)N3CCN(CCS(C)(=O)=O)CC3)c12` [Example 271, [6-(4-Hydroxy-phenyl)-3-methyl-1H-pyrazolo[3,4-b]pyridin-4-yl]-[4-(2-methanesulfonyl-ethyl)-piperazin-1-yl]-methanone], the inhibition at 1.14 µM was 66%.

One may read the inhibition as the change of the read-out against control, counted positive when it falls.
